How the values were obtained:
[1] = biological target: T1, Induced myeloid leukemia cell differentiation protein Mcl-1/BH3-interacting domain death agonist (Homo sapiens, UniProt Q07820); assay: Inhibition of Mcl-1/FITC-labelled Bid (unknown origin) protein protein interaction incubated for 20 to 60 mins by fluorescence polarisation binding assay
[2] = biological target: Bcl-xL/BAK (Homo sapiens, UniProt Q07817); assay: Binding affinity to human Bcl-xL/Bak (unkown origin) incubated for 1 hr by fluorescence polarization assay; type: protein assay
[3] = Binding affinity to mouse Mcl-1/Bak (unkown origin) incubated for 1 hr by fluorescence polarization assay
[4] = biological target: T2, BCL2A1/BID (Homo sapiens, UniProt Q16548); assay: Binding affinity to Bfl-1/Bid (unknown origin) incubated for 3 hrs by fluorescence polarization-based binding assay; type: protein assay
T2 sequence (Q16548 whole entry): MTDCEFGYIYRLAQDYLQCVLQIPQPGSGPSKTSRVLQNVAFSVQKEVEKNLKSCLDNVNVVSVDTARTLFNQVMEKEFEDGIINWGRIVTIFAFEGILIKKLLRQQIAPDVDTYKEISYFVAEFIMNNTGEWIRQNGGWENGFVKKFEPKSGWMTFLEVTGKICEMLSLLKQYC
T2 sequence (P55957 whole entry): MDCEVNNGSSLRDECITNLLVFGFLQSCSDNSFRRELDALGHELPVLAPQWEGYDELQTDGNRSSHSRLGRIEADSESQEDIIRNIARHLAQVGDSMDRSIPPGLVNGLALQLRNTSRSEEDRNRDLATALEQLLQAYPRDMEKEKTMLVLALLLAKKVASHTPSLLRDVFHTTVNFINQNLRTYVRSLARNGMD

[5] = biological target: T1, Induced myeloid leukemia cell differentiation protein Mcl-1/BH3-interacting domain death agonist; assay: Binding affinity to Mcl-1/Bid (unknown origin) incubated for 3 hrs by fluorescence polarization-based binding assay; type: protein assay

T1 sequence (Q07820 whole entry, one chain of several, the tested form may be a part): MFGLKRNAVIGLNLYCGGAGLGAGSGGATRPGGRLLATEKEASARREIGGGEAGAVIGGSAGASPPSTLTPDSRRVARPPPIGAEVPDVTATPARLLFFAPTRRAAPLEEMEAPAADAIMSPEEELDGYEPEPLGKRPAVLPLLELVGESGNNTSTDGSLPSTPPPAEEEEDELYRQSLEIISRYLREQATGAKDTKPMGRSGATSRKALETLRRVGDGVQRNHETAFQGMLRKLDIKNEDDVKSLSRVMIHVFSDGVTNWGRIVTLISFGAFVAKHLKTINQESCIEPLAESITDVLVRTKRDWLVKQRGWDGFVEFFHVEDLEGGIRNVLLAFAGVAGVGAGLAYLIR
Bcl-xL/BAK, sequence (Q07817 whole entry): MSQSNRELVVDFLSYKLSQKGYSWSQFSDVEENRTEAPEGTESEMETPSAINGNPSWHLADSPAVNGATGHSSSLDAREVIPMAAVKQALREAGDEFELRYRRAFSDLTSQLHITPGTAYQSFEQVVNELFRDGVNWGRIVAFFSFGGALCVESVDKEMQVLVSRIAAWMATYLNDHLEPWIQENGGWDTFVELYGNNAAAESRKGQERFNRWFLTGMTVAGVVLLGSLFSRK
Bcl-xL/BAK, sequence (Q16611 whole entry, further chain): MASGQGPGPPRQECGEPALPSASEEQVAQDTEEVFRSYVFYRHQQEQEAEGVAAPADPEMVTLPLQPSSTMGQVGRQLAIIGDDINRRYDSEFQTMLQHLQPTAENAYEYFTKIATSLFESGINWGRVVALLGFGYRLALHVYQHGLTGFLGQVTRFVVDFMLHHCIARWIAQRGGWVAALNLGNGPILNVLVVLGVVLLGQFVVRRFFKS

## Cc1ccc(S(=O)(=O)/N=C2\C=C(Sc3nc[nH]n3)C(=O)c3ccccc32)cc1
[1]
  IC50: 450 nM

## CC1=C[C@@H](/C=C(\C)c2ccc(C(=O)O)cc2)[C@]2(C(=O)O)C=C[C@@H](CCOC(=O)c3ccc(Oc4ccccc4)cc3)C[C@@H]2C1
[2]
  Ki: 700 nM
[3]
  Ki: 500 nM

## O=C(CSc1nnc(-c2ccco2)c(-c2ccco2)n1)Nc1ccccc1
[4]
  Ki: 4900 nM
[5]
  Ki: 3200 nM

— ChEMBL document CHEMBL5113375, “Development of Mcl-1 inhibitors for cancer therapy” (Eur J Med Chem, 2021)
